In US10233173B2, “Substituted 1,2,3-triazoles as NR2B-selective NMDA modulators” (JANSSEN PHARMACEUTICA NV, priority 2016, dated 2019):

target: human GluN1/GluN2B NMDA receptors (Homo sapiens, UniProt Q05586+Q13224); experiment: Cell-based calcium flux (FLIPR) assay on cloned human NR1/NR2B ion channels expressed in mammalian cells; settings: standard assay; glutamate at ~EC80; FLIPR calcium flux
Procedure, shortened: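 Calcium influx followed by FLIPR fluorescence after 5 min compound exposure and a further 5 min co-agonist challenge: 10 μM glycine with glutamate at ~EC80 (standard) or EC40 (HTS).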

Sequence of human GluN1/GluN2B NMDA receptors (Q13224 27-1484, other chains not shown): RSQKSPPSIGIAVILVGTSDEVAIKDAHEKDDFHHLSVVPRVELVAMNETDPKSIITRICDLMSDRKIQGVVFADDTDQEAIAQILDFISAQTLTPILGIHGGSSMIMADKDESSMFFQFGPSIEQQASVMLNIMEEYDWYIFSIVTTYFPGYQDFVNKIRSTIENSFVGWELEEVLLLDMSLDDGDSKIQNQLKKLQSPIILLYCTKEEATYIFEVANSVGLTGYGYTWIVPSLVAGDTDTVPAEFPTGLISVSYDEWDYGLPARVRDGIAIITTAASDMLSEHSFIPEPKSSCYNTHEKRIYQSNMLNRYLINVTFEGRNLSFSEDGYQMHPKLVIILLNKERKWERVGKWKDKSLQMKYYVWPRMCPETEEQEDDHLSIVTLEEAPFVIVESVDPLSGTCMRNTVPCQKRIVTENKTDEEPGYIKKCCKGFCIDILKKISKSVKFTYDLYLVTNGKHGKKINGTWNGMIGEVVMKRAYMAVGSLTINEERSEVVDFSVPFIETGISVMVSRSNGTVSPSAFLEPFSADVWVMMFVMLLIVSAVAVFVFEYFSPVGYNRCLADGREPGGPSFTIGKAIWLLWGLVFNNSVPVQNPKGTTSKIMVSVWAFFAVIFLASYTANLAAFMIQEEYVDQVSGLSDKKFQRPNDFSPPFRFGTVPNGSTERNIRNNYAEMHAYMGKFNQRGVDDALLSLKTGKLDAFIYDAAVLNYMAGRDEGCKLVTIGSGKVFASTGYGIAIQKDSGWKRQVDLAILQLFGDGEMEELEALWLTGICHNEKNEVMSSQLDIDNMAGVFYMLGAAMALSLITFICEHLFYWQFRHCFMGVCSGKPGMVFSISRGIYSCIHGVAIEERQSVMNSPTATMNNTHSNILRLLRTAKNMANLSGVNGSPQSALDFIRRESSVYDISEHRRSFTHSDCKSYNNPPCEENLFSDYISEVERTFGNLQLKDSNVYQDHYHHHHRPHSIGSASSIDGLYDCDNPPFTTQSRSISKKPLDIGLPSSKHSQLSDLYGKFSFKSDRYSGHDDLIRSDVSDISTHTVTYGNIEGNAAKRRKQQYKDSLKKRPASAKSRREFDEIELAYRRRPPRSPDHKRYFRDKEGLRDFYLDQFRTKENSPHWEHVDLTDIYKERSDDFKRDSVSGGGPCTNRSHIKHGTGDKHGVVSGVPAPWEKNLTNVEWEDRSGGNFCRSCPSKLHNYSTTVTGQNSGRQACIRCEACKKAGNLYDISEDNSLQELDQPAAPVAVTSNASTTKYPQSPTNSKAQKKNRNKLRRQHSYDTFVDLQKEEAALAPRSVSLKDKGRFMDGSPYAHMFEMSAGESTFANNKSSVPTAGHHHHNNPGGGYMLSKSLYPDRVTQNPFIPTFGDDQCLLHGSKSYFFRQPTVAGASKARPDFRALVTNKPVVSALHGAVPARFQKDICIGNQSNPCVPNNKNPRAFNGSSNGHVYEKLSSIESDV

With `CC(F)(F)c1cc(-n2cc(COc3ncc(CO)cn3)nn2)ccc1Cl` [Example 533, [2-[[1-[4-Chloro-3-(1,1-difluoroethyl)phenyl]triazol-4-yl]methoxy]pyrimidin-5-yl]methanol] as the compound, how does the IC50 read?
The IC50 was 0.017 µM.

Which IC50 does the source give for `CC(F)(F)c1cc(-n2cc(COc3ncc(C(F)F)cn3)nn2)ccc1Cl` [Example 535, 2-[[1-[4-Chloro-3-(1,1-difluoroethyl)phenyl]triazol-4-yl]methoxy]-5-(difluoromethyl)pyrimidine] here?
The IC50 was 0.009 µM.

How did the IC50 turn out when `CC(F)(F)c1cc(-n2cc(COc3nccc(C(F)F)n3)nn2)ccc1Cl` [Example 536, 2-[[1-[4-Chloro-3-(1,1-difluoroethyl)phenyl]triazol-4-yl]methoxy]-4-(difluoromethyl)pyrimidine] was run?
Its IC50 is 0.067 µM.

How did the IC50 turn out when `CC(F)(F)c1cc(-n2cc(COc3ncc(C(F)(F)F)cn3)nn2)ccc1Cl` [Example 537, 2-[[1-[4-Chloro-3-(1,1-difluoroethyl)phenyl]triazol-4-yl]methoxy]-5-(trifluoromethyl)pyrimidine] was run?
Its IC50 is 0.016 µM.

Which IC50 does the source give for `CC(F)(F)c1cc(-n2cc(COc3nccc(C(F)(F)F)n3)nn2)ccc1Cl` [Example 538, 2-[[1-[4-Chloro-3-(1,1-difluoroethyl)phenyl]triazol-4-yl]methoxy]-4-(trifluoromethyl)pyrimidine] here?
Its IC50 is 0.318 µM.

With `CC(F)(F)c1cc(-n2cc(COc3nccc(CO)n3)nn2)ccc1Cl` [Example 540, [2-[[1-[4-Chloro-3-(1,1-difluoroethyl)phenyl]triazol-4-yl]methoxy]pyrimidin-4-yl]methanol] as the compound, how does the IC50 read?
The IC50 was 0.019 µM.

Which IC50 does the source give for `COc1ccnc(OCc2cn(-c3ccc(Cl)c(C(C)(F)F)c3)nn2)n1` [Example 541, 2-[[1-[4-Chloro-3-(1,1-difluoroethyl)phenyl]triazol-4-yl]methoxy]-4-methoxy-pyrimidine] here?
The IC50 was 0.012 µM.

For `CC(F)(F)c1cc(-n2cc(COc3ncc(OC(F)F)cn3)nn2)ccc1Cl` [Example 542, 2-[[1-[4-Chloro-3-(1,1-difluoroethyl)phenyl]triazol-4-yl]methoxy]-5-(difluoromethoxy)pyrimidine], which IC50 is on record?
The IC50 was 0.012 µM.

`Cc1nc(OCc2cn(-c3ccc(Cl)c(C(C)(F)F)c3)nn2)ncc1Cl` [Example 543, 5-Chloro-2-[[1-[4-chloro-3-(1,1-difluoroethyl)phenyl]triazol-4-yl]methoxy]-4-methyl-pyrimidine] was tested. Which IC50 did it give?
The IC50 was 0.015 µM.

Which IC50 does the source give for `Cc1nc(OCc2cn(-c3ccc(Cl)c(C(C)(F)F)c3)nn2)ncc1F` [Example 544, 2-[[1-[4-Chloro-3-(1,1-difluoroethyl)phenyl]triazol-4-yl]methoxy]-5-fluoro-4-methyl-pyrimidine] here?
Its IC50 is 0.015 µM.

With `Cc1cnc(OCc2cn(-c3ccc(Cl)c(C(C)(F)F)c3)nn2)nc1C` [Example 545, 2-[[1-[4-Chloro-3-(1,1-difluoroethyl)phenyl]triazol-4-yl]methoxy]-4,5-dimethyl-pyrimidine] as the compound, how does the IC50 read?
The IC50 was 0.006 µM.

With `Cc1cc(C)nc(OCc2cn(-c3ccc(Cl)c(C(C)(F)F)c3)nn2)n1` [Example 546, 2-[[1-[4-Chloro-3-(1,1-difluoroethyl)phenyl]triazol-4-yl]methoxy]-4,6-dimethyl-pyrimidine] as the compound, how does the IC50 read?
The IC50 was 0.024 µM.

`CC(F)(F)c1cc(-n2cc(COc3nccc(N)n3)nn2)ccc1Cl` [Example 547, 2-[[1-[4-Chloro-3-(1,1-difluoroethyl)phenyl]triazol-4-yl]methoxy]pyrimidin-4-amine] was tested. Which IC50 did it give?
The IC50 was 0.033 µM.

`CNc1ccnc(OCc2cn(-c3ccc(Cl)c(C(C)(F)F)c3)nn2)n1` [Example 548, 2-[[1-[4-Chloro-3-(1,1-difluoroethyl)phenyl]triazol-4-yl]methoxy]-N-methyl-pyrimidin-4-amine] was tested. Which IC50 did it give?
The IC50 was 0.055 µM.

`CNc1nc(OCc2cn(-c3ccc(Cl)c(C(C)(F)F)c3)nn2)ncc1F` [Example 549, 2-[[1-[4-Chloro-3-(1,1-difluoroethyl)phenyl]triazol-4-yl]methoxy]-5-fluoro-N-methyl-pyrimidin-4-amine] was tested. Which IC50 did it give?
The IC50 was 0.094 µM.

`CC(=O)c1cnc(OCc2cn(-c3ccc(Cl)c(C(C)(F)F)c3)nn2)nc1` [Example 550, 1-[2-[[1-[4-Chloro-3-(1,1-difluoroethyl)phenyl]triazol-4-yl]methoxy]pyrimidin-5-yl]ethanone] was tested. Which IC50 did it give?
Its IC50 is 0.016 µM.

`CC(F)(F)c1cc(-n2cc(COc3ncc(C4CC4)cn3)nn2)ccc1Cl` [Example 552, 2-[[1-[4-Chloro-3-(1,1-difluoroethyl)phenyl]triazol-4-yl]methoxy]-5-cyclopropyl-pyrimidine] was tested. Which IC50 did it give?
Its IC50 is 0.086 µM.

With `CC(F)(F)c1cc(-n2cc(COc3nccc(N4CCCC4)n3)nn2)ccc1Cl` [Example 553, 2-[[1-[4-Chloro-3-(1,1-difluoroethyl)phenyl]triazol-4-yl]methoxy]-4-pyrrolidin-1-yl-pyrimidine] as the compound, how does the IC50 read?
Its IC50 is 0.043 µM.

With `CC(F)(F)c1cc(-n2cc(COc3ccccn3)nn2)ccc1F` [Example 554, 2-[[1-[3-(1,1-Difluoroethyl)-4-fluoro-phenyl]triazol-4-yl]methoxy]pyridine] as the compound, how does the IC50 read?
The IC50 was 1.64 µM.

Which IC50 does the source give for `CC(F)(F)c1cc(-n2cc(COc3ncccc3F)nn2)ccc1F` [Example 555, 2-[[1-[3-(1,1-Difluoroethyl)-4-fluoro-phenyl]triazol-4-yl]methoxy]-3-fluoro-pyridine] here?
The IC50 was 0.265 µM.

For `Cc1cccc(OCc2cn(-c3ccc(F)c(C(C)(F)F)c3)nn2)n1` [Example 556, 2-[[1-[3-(1,1-Difluoroethyl)-4-fluoro-phenyl]triazol-4-yl]methoxy]-6-methyl-pyridine], which IC50 is on record?
Its IC50 is 0.098 µM.

With `Cc1ccnc(OCc2cn(-c3ccc(F)c(C(C)(F)F)c3)nn2)c1` [Example 557, 2-[[1-[3-(1,1-Difluoroethyl)-4-fluoro-phenyl]triazol-4-yl]methoxy]-4-methyl-pyridine] as the compound, how does the IC50 read?
The IC50 was 0.246 µM.

`Cc1ccc(OCc2cn(-c3ccc(F)c(C(C)(F)F)c3)nn2)nc1` [Example 558, 2-[[1-[3-(1,1-Difluoroethyl)-4-fluoro-phenyl]triazol-4-yl]methoxy]-5-methyl-pyridine] was tested. Which IC50 did it give?
The IC50 was 0.125 µM.

`CC(F)(F)c1cc(-n2cc(COc3ccc(C(F)(F)F)cn3)nn2)ccc1F` [Example 559, 2-[[1-[3-(1,1-Difluoroethyl)-4-fluoro-phenyl]triazol-4-yl]methoxy]-5-(trifluoromethyl)pyridine] was tested. Which IC50 did it give?
The IC50 was 0.812 µM.

Which IC50 does the source give for `Cc1ccc(OCc2cn(-c3ccc(F)c(C(C)(F)F)c3)nn2)nc1C` [Example 560, 6-[[1-[3-(1,1-Difluoroethyl)-4-fluoro-phenyl]triazol-4-yl]methoxy]-2,3-dimethyl-pyridine] here?
Its IC50 is 0.052 µM.

With `COc1ncccc1OCc1cn(-c2ccc(F)c(C(C)(F)F)c2)nn1` [Example 561, 3-[[1-[3-(1,1-Difluoroethyl)-4-fluoro-phenyl]triazol-4-yl]methoxy]-2-methoxy-pyridine] as the compound, how does the IC50 read?
Its IC50 is 0.476 µM.

`CC(F)(F)c1cc(-n2cc(COc3ncc(C(F)F)cn3)nn2)ccc1F` [Example 562, 2-[[1-[3-(1,1-Difluoroethyl)-4-fluoro-phenyl]triazol-4-yl]methoxy]-5-(difluoromethyl)pyrimidine] was tested. Which IC50 did it give?
Its IC50 is 0.014 µM.

With `CC(F)(F)c1cc(-n2cc(COc3nccc(C(F)F)n3)nn2)ccc1F` [Example 563, 2-[[1-[3-(1,1-Difluoroethyl)-4-fluoro-phenyl]triazol-4-yl]methoxy]-4-(difluoromethyl)pyrimidine] as the compound, how does the IC50 read?
Its IC50 is 0.048 µM.

`CC(F)(F)c1cc(-n2cc(COc3nccc(C(F)(F)F)n3)nn2)ccc1F` [Example 564, 2-[[1-[3-(1,1-Difluoroethyl)-4-fluoro-phenyl]triazol-4-yl]methoxy]-4-(trifluoromethyl)pyrimidine] was tested. Which IC50 did it give?
Its IC50 is 0.272 µM.
